Test results as given in patent US20050038102A1, “Upregulation of type III endothelial cell Nitric Oxide Synthase by HMG-CoA reductase inhibitors” (BRIGHAM AND WOMENS HOSPITAL, priority 1997, published 2005).

How the values were obtained:
wild type mice = test: Regional cerebral blood flow by laser-Doppler flowimetry, wild type and simvastatin-treated mice; type: in vivo
Description: Regional cerebral blood flow (rCBF) was monitored by laser-Doppler flowimetry in groups of urethane-anesthetized, ventilated mice. Additional physiological variables were also monitored in the mice, including mean arterial blood pressure (MABP), heart rate, blood pH, PaO2, and PaCO2.
(§1) FIG. 5 is a bar graph showing regional CBF changes in wild type and eNOS null mice for 40 min after L-arginine (450 mg/kg) or saline infusion at a constant rate of 100 microliter/kg/min over 15 min. The number of mice in each group is indicated in parenthesis. Error bars denote standard error of the mean (SEM), and an asterisk (*) denotes statistically significant difference (P<0.05) compared with baseline control by one-way ANOVA followed by Fisher's protected least-squares difference test.
Error bars denote SEM and an asterisk (*) denotes statistically significant difference (P<0.05) compared with baseline control by one-way ANOVA followed by Fisher's protected least-squares difference test.

eNOS null mice = test: Regional cerebral blood flow by laser-Doppler flowimetry, eNOS null mice; type: in vivo; conditions: L-arginine 450 mg/kg, i.v., 40 minute recording period
Description: L-arginine infusion at 300 mg/kg, i.v., caused modest (10%) and variable elevations in regional cerebral blood flow (rCBF) after infusion in several preliminary experiments (n=4, data not shown). […] Regional cerebral blood flow (rCBF) was monitored by laser-Doppler flowimetry in groups of urethane-anesthetized, ventilated mice. Additional physiological variables were also monitored in the mice, including mean arterial blood pressure (MABP), heart rate, blood pH, PaO2, and PaCO2.
as §1

ecNOS protein = test: Western blotting of ecNOS protein levels in endothelial cells; type: cell-based, human; conditions: for increase in ecNOS protein levels / ecNOS expression / increase in ecNOS protein levels: 0.1 mmol/L alone
Description: Human endothelial cells were harvested from saphenous veins and cultured as described (15). For transfection studies, bovine aortic endothelial cells of less than 3 passages were cultured in a growth medium containing DMEM (Dulbecco's Modified Eagle's Medium), 5 mmol/L L-glutamine (Gibco), and 10% fetal calf serum (Hyclone Lot# 114577). For all experiments, the endothelial cells were placed in 10% lipoprotein-deficient serum (Sigma, Lot#26H9403 1) for 48 h prior to treatment conditions. […] Cellular viability as determined by cell count, morphology, and Trypan blue exclusion was maintained for all treatment conditions.
Cellular proteins were prepared and separated on SDS/PAGE as described (Liao, J K et al., J Biol Chem, 1995, 270:319-324.). Immunoblotting was performed using a murine monoclonal antibody to human ecNOS (1:400 dilution, Transduction Laboratories, Lexington, Ky.). Immunodetection was accomplished using a sheep anti-mouse secondary antibody (1:4000 dilution) and the enhanced chemiluminescence (ECL) kit (Amersham Corp., Arlington Heights, Ill.). Autoradiography was performed at 23° C. and the appropriate exposures were quantitated by densitometry.
Human endothelial cells were harvested from saphenous veins using Type II collagenase (Worthington Biochemical Corp., Freehold, N.J.) as previously described. Cells of less than three passages were grown to confluence in a culture medium containing Medium 199, 20 mM HEPES, 50 mg/ml ECGS (Collaborative Research Inc., Bedford, Mass.), […] heparin sulfate, 5 mM L-glutamine (Gibco), 5% fetal calf serum (Hyclone, Logan, Utah), and antibiotic mixture of penicillin (100 U/ml)/ streptomycin ([…])/Fungizone (1.25 mg/ml). For all experiments, the endothelial cells were grown to confluence before any treatment conditions. In some experiments, cells were pretreated with actinomycin D (5 mg/ml) for 1 h prior to treatment with HMG-CoA reductase inhibitors. […]

wildtype SV-129 mice = test: Murine model of cerebral vascular ischemia (MCA occlusion), wild-type; type: in vivo; conditions: lovastatin treatment
Source text: The neurological motor deficit score improved in simvastatin-treated mice (n-18) by almost 2-fold compared to that of controls (n=12) (0.8±0.2 vs. 1.7±0.2, p<0.01).

ecNOS = test: Assay for ecNOS activity (LNMA-inhibitable nitrite production); type: cell-based, human; conditions: higher concentration
ecNOS mRNA [1] = test: ecNOS mRNA half-life in the presence of actinomycin D; type: cell-based, human
ecNOS mRNA [2] = test: Quantitative RT-PCR of ecNOS mRNA in mouse aortae and brains; type: in vivo, mice
[3] = 1 mmol/L alone (concentration series), 48 h
[4] = 10 mmol/L alone (concentration series), 48 h

N=C(N)NCCC[C@H](N)C(=O)O [L-arginine]
elevation in regional cerebral blood flow (rCBF) (wild type mice; L-arginine 300 mg/kg, i.v., preliminary experiments): 10%
time at which increase in rCBF began (wild type mice; L-arginine 450 mg/kg, i.v., wild type mice): 5 to 10 min
maximum increase in rCBF above baseline (wild type mice; L-arginine 450 mg/kg, i.v., wild type mice, at 20-25 min): 26%
additional time for which rCBF increases were sustained (wild type mice; L-arginine infusion in simvastatin-treated mice): 20 min
maximum increase in rCBF over simvastatin baseline (wild type mice; L-arginine infusion in simvastatin-treated mice, at 15-20 min): 29-31%
rCBF change (eNOS null mice): −4 to +5%

CC[C@H](C)C(=O)O[C@H]1C[C@@H](C)C=C2C=C[C@H](C)[C@H](CC[C@@H]3C[C@@H](O)CC(=O)O3)[C@H]21 [lovastatin]
increase in ecNOS protein levels / ecNOS expression (ecNOS protein; 48 h): 10%
increase in ecNOS expression (ecNOS protein; [3]): 105%
increase in ecNOS expression (ecNOS protein; [4]): 180%
potency in upregulating ecNOS protein levels, less potent than simvastatin (ecNOS protein; equimolar concentrations): 10 fold
effect on ecNOS expression (ecNOS protein; not chemically-activated): had no effect on ecNOS expression
reduction of cerebral infarct size (wildtype SV-129 mice): also occurred with lovastatin treatment, albeit at higher relative concentrations
concentration needed for similar findings, compared to that of simvastatin (ecNOS): 10 fold

CCC(C)(C)C(=O)O[C@H]1C[C@@H](C)C=C2C=C[C@H](C)[C@H](CC[C@@H]3C[C@@H](O)CC(=O)O3)[C@H]21 [simvastatin]
increase in ecNOS expression (ecNOS protein; 0.01 mmol/L alone (series 0.01 to 10 mmol/L), 48 h): 1%
increase in ecNOS protein levels (ecNOS protein; 12 h): 4%
increase in ecNOS protein levels (ecNOS protein; 24 h): 21%
increase in ecNOS protein levels / ecNOS expression (ecNOS protein; 48 h): 80%
increase in ecNOS protein levels (ecNOS protein; 72 h): 90%
increase in ecNOS protein levels (ecNOS protein; 84 h): 95%
increase in ecNOS expression (ecNOS protein; [3]): 190%
increase in ecNOS expression (ecNOS protein; [4]): 310%
decrease in ecNOS protein level (ecNOS protein; simvastatin 0.1 mmol/L + ox-LDL 50 mg/ml, 24 h): 15%
ecNOS protein levels increased above basal expression (ecNOS protein; simvastatin 0.1 mmol/L + ox-LDL 50 mg/ml, 72 h): 110%
ecNOS protein levels increased above basal expression (ecNOS protein; simvastatin 0.1 mmol/L + ox-LDL 50 mg/ml, 96 h): 124%
ecNOS expression above basal expression (ecNOS protein; simvastatin 1 mmol/L + ox-LDL 50 mg/ml (TBARS 15.1 nmol/mg), 48 h): 150%
ecNOS protein levels above baseline (ecNOS protein; simvastatin 10 mmol/L + ox-LDL 50 mg/ml, 48 h): 210%±12%
half-life of ecNOS mRNA (t½) (ecNOS mRNA [1]; simvastatin 0.1 mmol/L + ox-LDL): 22 ± 3 h
half-life of ecNOS mRNA (t½) (ecNOS mRNA [1]; simvastatin alone): 43 ± 4 h
increase in baseline rCBF (wild type mice; chronic daily administration of simvastatin alone): 25%
increase in ecNOS expression in infarcted, ipsilateral hemisphere compared to contralateral side (ecNOS mRNA [2]; simvastatin 2 mg/kg, 14 days, brain, with respect to GAPDH mRNA): 1.5-to 2 fold
increase of ecNOS message compared to that of GAPDH, aortae (ecNOS mRNA [2]; simvastatin-treated mice, dose-dependent): 3 fold

L-mevalonate
reduction of ecNOS protein compared to cells treated with ox-LDL and simvastatin (ecNOS protein; addition of L-mevalonate 100 mmol/L to ox-LDL + simvastatin 1 mmol/L): 50%±5%
observable adverse effects on cellular morphology (human endothelial cell): no observable adverse effects
